Experimental data published in patent US12403125B2, “Use of Ovatodiolide against SARS-CoV-2” (Peking University Shenzhen Graduate School, priority 2020, dated 2025).

Assays:
[1] = mice; for number of micronuclei in the reticulocytes vs negative control / number of reticulocytes in peripheral blood vs negative control: 48 and 72 hours after administration
Protocol: In this experiment, the Formula I compound—Ovatodiolide on the peripheral blood micronucleus was tested in mice (ICR strain). This experiment mainly tested the effect of the Formula I compound—Ovatodiolide on the ratio of the occurrence of micronucleus in the peripheral blood of the mice (in vivo), so as to evaluate the level of damages caused by directly or indirectly triggered gene mutations of erythrocyte chromosomes or mitosis. ICR mice were used as the experimental subjects of this experiment, and the experiment was divided into 5 groups, the negative control group, the positive control group (Cyclophosphamide, 60 mg/kg bw ip), the Formula I compound—Ovatodiolide low dose (0.25 g/kg bw) group, the medium Dosage (0.5 g/kg bw) group and the high dose (1 g/kg bw) group, 5 mice (male) in each group, and Ovatodiolide was fed once by a gastric tube, 48 and 72 hours after the tested substances were administered, the reticulocytes and the occurrence (%) of micronucleus in the reticulocytes in the peripheral blood of the mice were evaluated.

[2] = tested on: SARS-CoV-2 pseudovirus; test: microbe, parasite or virus in culture; assay type: cell-based
[3] = tested on: HIV virus; conditions: Fitoterapia, 2000, 71(5): 574-576; cited from earlier work
[4] = tested on: CHO-K1 cells; test: In vitro mammalian chromosome aberration test, with cytotoxicity test; assay type: cell-based; conditions: for survival rate of the CHO-K1 cells: 24 hours
Protocol: In this experiment, the chromosomal aberration test with mammalian cell in culture of the Formula I compound—Ovatodiolide was carried out. The Formula I compound—Ovatodiolide was yellowish crystals, and prepared with Dimethyl sulfoxide (DMSO) during the test. The cytotoxicity test was divided into two parts, in one part, CHO-K1 cells was reacted directly with the Formula I compound—Ovatodiolide, and in the other part, rat liver activating enzyme extract (S9) was used to simulate human metabolism, CHO-K1 cells, the rat liver activating enzyme extract (S9) and the Formula I compound—Ovatodiolide were mixed and then reacted.

[5] = tested on: influenza virus; test: Test experiments on influenza virus in contrast to Tamiflu
[6] = Single-dose oral acute toxicity test in rats; assay type: in vivo, rats (Sprague-Dawley, S D strain)
Protocol: This example was a single-dose oral acute toxicity safety test of the Formula I compound—Ovatodiolide in rats, and a reference for food safety assessment was provided. […] In this experiment, single-dose oral acute toxicity tests of the Formula I compound—ovatodiolide were conducted in rats (Sprague-Dawley, S D strain). The Formula I compound—Ovatodiolide was in the form of yellowish crystals, the test purity was 99.95%, 10% of DMSO was used to prepare a solution concentration of 0.1 g/mL during the experiment, the feeding volume of each rat was 10 mL/kg body weight, the rats were fed orally based on their body weights on that day, the final dose was 1 g/kg-body weight in total, and the rats were continuously observed for 14 days after administration. […] No effects on the serum liver and kidney enzyme values of the male and female rats in the treatment group, including aspartate aminotransferase (AST), alanine aminotransferase (ALT), blood urea nitrogen (BUN), and creatinine, etc.

[7] = 28-day feeding (repeated dose oral) toxicity test in rats; assay type: in vivo, rats (Sprague-Dawley, S D strain)
Protocol: This experiment investigated whether the Formula I compound—Ovatodiolide might cause potential side effect toxicity to human bodies for clinical safety assessment, and 28-day repeated-dose oral toxicity tests of the Formula I compound—Ovatodiolide were conducted to observe clinical side effects. The Formula I compound—Ovatodiolide was a yellowish crystal, the test purity was regarded as 99.95%, and the samples were prepared with 5% of DMSO during the tests. Rats (Sprague-Dawley, S D strain) were divided into 4 groups, the control group (5% of DMSO), the low-dose group (10 mg/kg-body weight), the medium-dose group (25 mg/kg body weight) and the high-dose group (50 mg/kg-body weight), 20 rats in each group, half males and half females, each rat was fed with a volume of 10 mL/kg-body weight, and the rats were orally fed according to their body weight on the day for 28 consecutive days. […] In view of the above test results, after the rats of the low-dose group (10 mg/kg-body weight), the medium-dose group (25 mg/kg-body weight) and the high-dose group (50 mg/kg-body weight) were orally fed respectively with the Formula I compound—Ovatodiolide for 28 days continuously, no toxic reactions was caused to various organs of the male and female rats, and the “No observed adverse effect level” (NOAEL) for the 28-day feeding toxicity test in rats was 50 mg/kg-body weight, the equivalent human dose was about 8 mg/kg-body weight.

[8] = male and female rats, 1 g/kg-body weight oral

O=P1(N(CCCl)CCCl)NCCCO1 (stereo not drawn) [Cyclophosphamide, reference compound]
number of micronuclei in the reticulocytes vs negative control [1]: increased significantly | number of reticulocytes in peripheral blood vs negative control [1]: significantly decreased

C=C1C(=O)O[C@@H]2/C=C(\C)C[C@H]3C=C(CC/C=C(\C)CC[C@@H]12)C(=O)O3 [Ovatodiolide]
inhibitory effect on coronavirus infections [2]: significant inhibitory effect on coronavirus infections at the micromolar level | IC50 ([2]; Severe acute respiratory syndrome-related coronavirus, Huh-7, 64 h, read-out: IC50 for inhibiting SARS-CoV-2 infections): 3.73 µM | inhibition of HIV virus [3]: can inhibit HIV virus | number of micronuclei in the reticulocytes vs negative control [1]: no significant difference | number of reticulocytes in peripheral blood vs negative control [1]: no significant difference | micronucleus test result ([1]; each dose group): negative | toxicity symptoms and body weight ([1]; single gastric tube dose 0.25, 0.5, 1 g/kg bw, 48 and 72 hours): no toxicity symptoms and no differences in the body weight | survival rate of the CHO-K1 cells ([4]; 17.5 μM, without S9 (−S9)): about 65.6% | survival rate of the CHO-K1 cells ([4]; 75 μM, with S9 (+S9)): about 60.3% | frequency of chromosomal aberration in the CHO-K1 cells vs negative control ([4]; 12.5, 15 and 17.5 μM (−S9) and 55, 65 and 75 μM (+S9)): did not increase significantly | effect on inhibiting influenza virus [5]: excellent effect on inhibiting influenza virus | equivalent human dose of the single acute dose ([6]; from 1 g/Kg-body weight in rats): about 50 mg/kg-body weight | blood values (WBC, RBC, Hct, MCV, MCH, MCHC, platelets, leukocyte classification) [6, 8]: no significant abnormal changes | serum liver and kidney enzyme values (AST, ALT, BUN, creatinine) [6, 8]: No effects | weekly body weight and body weight gain vs control group [6, 8]: no significant difference | histopathological examination of important organs ([6]; rats, 1 g/kg-body weight oral): no histopathological changes in relation to the test substances | acute poisoning or death ([6]; rats, single oral dose 1 g/Kg-body weight, observed 14 days): no acute poisoning or death | equivalent human dose of the NOAEL ([7]; from rat NOAEL, 28-day feeding): about 8 mg/kg-body weight | histopathological examination of organs ([7]; high-dose group (50 mg/kg-body weight), 28 days): no pathological changes related to organ toxicity reaction | body weight changes, feed consumptions, urine, blood values, serum enzyme values and organ weights vs control ([7]; male and female rats, each treatment group, 28 days): within the normal range | symptoms of being poisoned or death ([7]; rats, oral 10, 25 and 50 mg/kg-body weight, 28 days): no symptoms of being poisoned or death | No observed adverse effect level (NOAEL) ([7]; rats, oral, 28 consecutive days): 50 mg/kg-body weight
